Test results as given in patent US12227491B2, “EGFR inhibitors” (INVENTISBIO CO., LTD., priority 2018, dated 2025).
Where two headings read alike, the source gives them in different places.

Key:
wild-type EGFR (WT-EGFR) = wild-type EGFR (WT-EGFR) (Homo sapiens, UniProt P00533); details: major metabolite of AZD9291; cited from earlier work
[1] = Hygroscopicity of crystalline Form I on storage at 25° C., 80% relative humidity; format: physicochemical
[2] = Solid-state stability of Form I under thermal treatment and mechanical grinding (XRPD); format: physicochemical
Procedure: POWDER X-RAY DIFFRACTION (XRPD): The solid samples from screening were examined using X-ray diffractometer (Bruker D8 advance). The system is equipped with LynxEye detector. The samples were scanned from 3 to 40° 2θ, at a step size 0.02° 2θ. The tube voltage and current were 40 KV and 40 mA, respectively. The sample was transferred from sample container onto zero background XRD-holder and gently ground.
DSC ANALYSIS: DSC analysis was conducted on a TA Instruments Q200. The calibration standard was indium. A sample in weight was placed into a TA DSC pan, and weight accurately recorded. Crimped pans were used for analysis and the samples were heated under nitrogen (50 mi/min) at a rate of 10° C./min, up to a final temperature.

NSCLC patients = details: cited from earlier work

Sequence of wild-type EGFR (WT-EGFR) (P00533 25-1210): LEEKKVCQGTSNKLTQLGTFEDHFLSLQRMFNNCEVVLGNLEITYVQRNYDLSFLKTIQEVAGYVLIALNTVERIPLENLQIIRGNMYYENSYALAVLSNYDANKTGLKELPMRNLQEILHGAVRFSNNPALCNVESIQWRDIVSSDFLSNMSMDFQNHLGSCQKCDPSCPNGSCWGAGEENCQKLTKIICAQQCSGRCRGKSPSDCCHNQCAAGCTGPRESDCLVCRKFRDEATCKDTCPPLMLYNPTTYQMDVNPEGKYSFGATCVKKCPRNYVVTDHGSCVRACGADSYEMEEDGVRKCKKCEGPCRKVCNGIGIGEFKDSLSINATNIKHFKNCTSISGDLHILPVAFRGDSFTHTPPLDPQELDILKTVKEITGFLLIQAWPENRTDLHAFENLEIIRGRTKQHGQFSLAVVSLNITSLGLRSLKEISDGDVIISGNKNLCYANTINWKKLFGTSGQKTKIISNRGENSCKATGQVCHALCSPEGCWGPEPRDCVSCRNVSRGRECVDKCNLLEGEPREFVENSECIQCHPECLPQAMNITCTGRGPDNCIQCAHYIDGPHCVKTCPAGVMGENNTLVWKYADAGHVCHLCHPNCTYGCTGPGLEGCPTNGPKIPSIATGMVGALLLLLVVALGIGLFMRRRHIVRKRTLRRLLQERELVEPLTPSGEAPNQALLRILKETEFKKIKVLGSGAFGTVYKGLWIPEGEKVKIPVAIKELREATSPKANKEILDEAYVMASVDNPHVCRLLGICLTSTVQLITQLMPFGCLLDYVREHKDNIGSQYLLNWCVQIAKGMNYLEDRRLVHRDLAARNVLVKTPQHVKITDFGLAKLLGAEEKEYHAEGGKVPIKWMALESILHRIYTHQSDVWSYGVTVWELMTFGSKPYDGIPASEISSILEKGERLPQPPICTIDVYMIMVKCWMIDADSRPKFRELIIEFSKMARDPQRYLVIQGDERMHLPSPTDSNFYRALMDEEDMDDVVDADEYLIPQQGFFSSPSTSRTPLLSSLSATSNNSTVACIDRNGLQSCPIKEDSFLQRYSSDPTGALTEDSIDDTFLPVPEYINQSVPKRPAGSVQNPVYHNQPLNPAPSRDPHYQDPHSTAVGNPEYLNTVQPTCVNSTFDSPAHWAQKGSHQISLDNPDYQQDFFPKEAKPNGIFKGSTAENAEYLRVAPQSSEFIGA

## C=CC(=O)Nc1cc(Nc2nccc(-c3c[nH]c4ccccc34)n2)c(OC)cc1N(C)CCN(C)C [AZ5104]
wild-type EGFR (WT-EGFR)
  inhibitory effect on wild-type EGFR: strong inhibitory effect

## C=CC(=O)Nc1cc(Nc2nccc(-c3cn(CC(F)(F)F)c4ccccc34)n2)c(OC)cc1N(C)CCN(C)C [Compound 5, N-(2-((2-(dimethylamino)ethyl)(methyl)amino)-4-methoxy-5-((4-(1-(2,2,2-trifluoroethyl)-1H-indol-3-yl)pyrimidin-2-yl)amino)phenyl)acrylamide monomesylate]
[1]; 25° C., relative humidity of 80%
  increase in weight upon storing: only negligible increase in weight
[1]; crystalline Form I
  hygroscopicity: non-hygroscopic
[2]; Form I grinded mechanically
  crystallinity after mechanical grinding: some loss of crystallinity
[2]; crystals heated in DSC cells to 220° C., then immediately placed into ice (quench), XRPD
  solid form after thermal treatment: converted into an amorphous form

## C#Cc1cccc(Nc2ncnc3cc(OCCOC)c(OCCOC)cc23)c1 [erlotinib]
NSCLC patients; Asian NSCLC patients
  share of patients in whom the drug has effect: about 35%
NSCLC patients; Caucasian patients with NSCLC
  share of patients in whom the drug has effect: about 10%

## COc1cc2ncnc(Nc3ccc(F)c(Cl)c3)c2cc1OCCCN1CCOCC1 [gefitinib]
NSCLC patients; Asian NSCLC patients
  share of patients in whom the drug has effect: about 35%
NSCLC patients; Caucasian patients with NSCLC
  share of patients in whom the drug has effect: about 10%
